Data on two compounds can be found in patent US20160175241A1, “COMPOSITION FOR SKIN ANTI-AGEING TREATMENT” (POLICHEM SA, priority 2013, published 2016).

Assay [1] concerns Reactive oxygen species (ROS) measured on keratinocytes after exposure to Ultraviolet light A (UVA). The assay can be described thus: ROS formation in keratinocytes after UVA exposure (DCA fluorescence). Type of assay: cell-based. To be noted: Homo sapiens, Keratinocyte, light or radiation study, 0.15 mg/ml (positive control). The procedure:
To the test the different antioxidant activity of the composition according to the Example 1 versus the Comparative Compositions 2-5 of the Example 2, they were tested at different concentrations (0.500-0.016 mg/ml) on Reactive oxygen species (ROS) measured on keratinocytes after exposure to Ultraviolet light A (UVA), with and without the tested sample, evaluating the cell viability after UVA stress by Neutral red uptake (NRU) test: cell survival assay using cultured human keratinocytes in monolayer cultures with and without the tested sample.
Human primary keratinocytes come from paediatric foreskins, with ethic committee's permission, from pre-planned routine surgery. The epidermis was separated from dermis by incubation with […] and trypsinized to generate single cell suspension.
Keratinocytes were cultivated in Dulbecco's modified Eagle's and Ham's F12 media (3:1) enriched with 10% foetal calf serum (v/v) and specific enrichments.
These cells multiply in culture until a cell monolayer is reached. […] Once a confluence of 60-70% has been reached, fresh medium is added with scalar dilutions of the tested sample. Non-treated cells are used as negative controls. At this stage the cell cultures were treated with different dilutions of the test compound and of the controls to obtain final concentrations ranging from 0.5 to 0.016 mg/ml. For each dilution, three replicate tests were performed. The product was dissolved in the culture medium. […] The cell vitality is determined after UVA exposure and without UV exposure.
After having exposed the cells to the tested sample, the cell culture medium is removed and the cells are washed in PBS. […] DCA is reacting with free radicals in the medium, originating a fluorescent derivative, and the fluorimeter reading allows obtaining a quantitative data related to the ROS content in the cells.
After suitable incubation, the DCA solution has been discharged and the cells have then been exposed for different times to UVA irradiation and soon after read in the fluorimeter, as described (Toxicol. Letters 1997-93:47-54).

Assay [2] has as its system skin structure and firmness. To be noted: two concentrations, 0.1% and 1%; cited from earlier work.

What is called inhibition is the share of the control response that was lost under treatment. Read a high inhibition as strong suppression. Regarding `O=C1O[C@H]([C@@H](O)CO)C(O)=C1O` [Vitamin C], the inhibition at 150 µg/mL in assay [1] (4′ UVA (1 J/cm2)) came out at 19.6%; in assay [1] (8′ UVA (2 J/cm2)) it was 13.4%; in assay [1] (12′ UVA (3 J/cm2)), 14.8%.
`COc1cc(O)c(CC=C(C)C)c(O)c1C(=O)/C=C/c1ccc(O)cc1` [xanthohumol]: the “improving skin structure and firmness” value in assay [2] is “resulted efficacious”.
